Results from patent publication US20190211099A1, “METHODS AND COMPOSITIONS FOR TREATING CANCER WITH SIGLEC-9 ACTIVITY MODULATORS” (KING'S COLLEGE LONDON, priority 2016, published 2019).

Experiments:
Assay type in all cases: cell-based, human
[1] = tested on: MUC1-ST educated monocytes and macrophages; assay: Secretion of PAI-1 and M-CSF from MUC1-ST educated monocytes and macrophages with PD98059 or verapamil
Experimental: ELISAs for IL-6, IL-12p70, TGF-β1, PAI-1, M-CSF, EGF, SHP2, phospho-SHP2 (Biotechne) were all carried out as per manufacturer's instructions.
To explore this, the secretion of PAI-1 and M-CSF from MUC1-ST educated monocytes and macrophages was measured following treatments with 1 μM PD98059 or 20 μM verapamil for 20 minutes at 37° C., where indicated.

monocytes from PBMCs = assay: MUC1-ST mediated TAM formation in monocytes from PBMCs, 7 day serum-free culture; settings: PD98059 at 10 μM
Experimental: To further explore the role of MUC1-ST in inducing a TAM-like phenotype, monocytes from PBMCs were plated in serum-free medium, incubated with MUC1-ST or PBS, and cultured for 7 days.
Intracellular calcium flux can lead to activation of the MEK/ERK pathway (Christo et al. (2015) IMMUNOL. AND CELL BIOLOGY 93: 694-704). […] Furthermore, treatment with the MEK inhibitor PD98059 at 10 μM inhibited MUC1-ST mediated TAM formation in monocytes (FIGS. 12B, 12D-12E).

allogeneic CD8+ T cells = assay: Co-culture of MUC1-ST treated macrophages with allogeneic CD8+ T cells; settings: MEK signalling inhibited in the macrophages (FIG. 13K)
Experimental: Thereafter, the effects of MUC1-ST educated macrophages on T cell function were analyzed. Macrophages treated with MUC1-ST were co-cultured with eFluor® 670 labelled allogeneic CD8+ T cells in the presence of absence of anti-Siglec-9 antibody or isotype control. Indeed, macrophages that had been educated with MUC1-ST were decreased in their ability to stimulate the proliferation of allogeneic CD8 T cells (FIG. 11E). […] (FIG. 11F). This profile of expression and functional activity is indicative of tumor-associated macrophages (TAMs), which play a role in promoting tumor progression (Noy et al. (2014) IMMUNITY 41: 49-61; Sousa et al. (2015) BREAST CANCER RES. 17: 101; Qian et al. (2010) CELL 141: 39-45).

THP-1 cells = assay: PAI-1, M-CSF and kynurenine in supernatants of differentiated THP-1 cells; settings: THP-1; PD98059
Experimental: THP-1 cells were cultured at a concentration of 1×10^6/mL in AIM V medium. Cells were differentiated using […] phorbol 12-myristate 13-acetate (PMA) on day 0 and 100 ng/mL LPS on day 3 in the presence or absence of 100 μg/mL MUC1-ST or MUC1-T. Cell supernatants were harvested on day 5 and PAI-I concentration measured by ELISA.
Given that IDO catalyzes the rate-limiting step in the metabolism of tryptophan, the tryptophan metabolite kynurenine was detected as follows. 604, supernatant was mixed with 304, 30% trichloroacetic acid (TCA) and incubated for 30 minutes at 50° C. The supernatant was spun at 3000×g and 50 μL was harvested and mixed with 50 μL freshly prepared Ehrlich Reagent (2% p-dimethylaminobenzaldehyde in glacial acetic acid). After 10 minutes optical density (O.D.) was measured at 492 nm, and concentrations were calculated against a kynurenine standard curve. An increase in the tryptophan metabolite kynurenine was observed (FIG. 11D).
The intracellular effects of MUC1-ST binding to Siglec-9 were further explored in the monocytic cell line, THP-1. THP-1 cells were cultured for three days at a concentration of 1×10^6/mL in AIM V medium and differentiated using […] phorbol 12-myristate 13-acetate (PMA) in the presence or absence of 100 μg/mL MUC1-ST. […] THP-1 cells were further treated with DMSO or the MEK/ERK inhibitor PD98059 at 1004, and the concentration of PAI-1, M-CSF and kynurenine in cell supernatants were measured as described above. […] This increase in concentration was blocked by the MEK/ERK inhibitor PD98059 (FIG. 4I).

CD8+ T cells = assay: Co-culture of MUC1-ST educated M-CSF macrophages with CD3/CD28 stimulated autologous T cells; settings: antibody present
Experimental: In addition, primary monocytes were induced to differentiate to macrophages in the presence of MUC1-ST and then co-cultured for 48 hours with CD3/CD28 stimulated autologous CD8+ or CD4+ T cells. T cell proliferation and CD69/CD25 cell surface expression were measured using flow cytometry.

[2] = tested on: monocyte derived dendritic cells; assay: Differentiation of monocytes into dendritic cells; settings: 10 μg/10^6 cells anti-Siglec-9 before MUC1-ST; 10 μg/ml anti-IL-6Rα every 2 days
Experimental: To differentiate monocytes into macrophages, CD14+ cells were plated at a concentration of 1×10^6/mL in AIM V medium (Lonza) with either 50 ng/mL recombinant human M-CSF or 50 ng/mL recombinant human GM-CSF (Bio-Techne). The cytokines were added every 3 days. The cells were incubated at 37° C., 5% CO2 for 7 days to fully differentiate, before being characterized as macrophages via phenotypic flow cytometric analysis. To differentiate monocytes into dendritic cells (moDC), CD14+ cells were plated at a concentration of 1×10^6/mL in AIM V medium with 1500 U/mL recombinant human IL-4 (Bio-Techne) and 400 U/mL human GM-CSF (Bio-Techne) for 6 days to fully differentiate, before being characterized as immature DCs via phenotypic flow cytometric analysis (Epics XL, Beckman Coulter or FACSCalibur, BD Biosciences plus WinMDI or Cellquest software). MoDCs were matured using 1 μg/mL LPS for 24 hours.
In addition, the effects of MUC1-ST on the differentiation of monocytes into dendritic cells were assessed. Briefly, monocytes were treated with MUC1-ST on day 0 and differentiated into immature dendritic cells (DCs) using IL-4 (1500 U/mL) and GM-CSF (400 U/mL) in AIM-V media for 6 days. Immature DCs were matured using 1 μg/mL LPS for 24 hours. […]

[3] = tested on: M-CSF macrophages differentiated with LPS and IFNγ; assay: Differentiation of monocytes into M(LPS+IFNγ) macrophages: CD86 and IL-12; settings: blocking antibodies
Experimental: Both the cell phenotype staining and neutralization studies described in the Examples were performed using the following antibodies (all anti-human): Siglec-9 (Biotechne; 191240), Siglec-9 FITC (Biotechne; 191240), Siglec-3 (Biotechne; 6C5/2), Siglec-7 (Biotechne; AF1138), Siglec-3 FITC (BD; P67.6), Siglec-7 PE (Biolegend; 6-434), Siglec-10 PE (Biolegend; 5G6), Siglec-1 (abcam; 7D2), HLA-DR FITC (Beckman Coulter; IM0463U), CD16 FITC (Biolegend; B73.1), CD14 FITC (BD 555397), CD69 PE (Beckman Coulter; IM1943), CD25 FITC (ABX228FITC), CD86 PE (Beckman Coulter; IM2729U), CD40 FITC (BD 555588), CD83 PE (Beckman Coulter; IM2218), CD163 PE (Biolegend; GHI/61), CXCR1 FITC (BD Pharmongen; 551126), CD45 PC5 (Beckman Coulter; IM2653U), CD206 PE (ebioscience; 19.2), PD-L1 PE (Biolegend; 29E.2A3), CD36 (Santa Cruz; H-300), TGFbetaRII (Bio-Techne; AF-241), IL-6Rα (Tocilizumab; Roche. A generous gift from Dr. Valerie Corrigall). […] At least 1×10^4 events were evaluated using either Epics XL, (Beckman Coulter) or FACSCalibur (BD Biosciences) flow cytometers. […]
Given that IL-6 and NO are known differentiation modulators (Oosterhoff et al. (2012) ONCOIMMUNOLOGY 1: 649-658; Bogdan (2015) TREND IMMUNOL. 36: 161-178) the effects of MUC1-ST on the differentiation of monocytes into macrophages was assessed. […]

[4] = 20 μM verapamil, 20 minutes at 37° C.
[5] = 1 μM PD98059, 20 minutes at 37° C.

## COc1ccc(CCN(C)CCCC(C#N)(c2ccc(OC)c(OC)c2)C(C)C)cc1OC (stereo not shown) [verapamil]
[1]; [4]
  secretion of M-CSF: significantly inhibited
  secretion of PAI-1: significantly inhibited

## COc1cccc(-c2cc(=O)c3ccccc3o2)c1N [PD98059, reference compound]
Monocytes from PBMCs
  MUC1-ST mediated TAM formation in monocytes: inhibited
Allogeneic CD8+ T cells
  repression of T cell proliferation by MUC1-ST treated macrophages: could be overcome
[1]; [5]
  secretion of M-CSF: significantly inhibited
  secretion of PAI-1: significantly inhibited
THP-1 cells
  MUC1-ST induced increase in PAI-1, kynurenine and M-CSF concentration: blocked

## Tocilizumab [anti-IL-6Rα, reference compound]
CD8+ T cells
  reversal of the inhibition of CD8+ T cell activation: could be reversed
[2]
  reversal of the effect of MUC1-ST on differentiation of dendritic cells: significantly reverse
[3]
  rescue of MUC1-ST induced lowering of CD86 and IL-12: partially rescued
